Values quoted from earlier work in patent US5618928A, “Triazenyl-substituted phenyl pyrimidines and their use in therapy” (British Technology Group Limited, priority 1992, dated 1997).

What was measured:
[1] = in combination with sulphamethoxazole, AIDS patients; cited from earlier work
[2] = system: dihydrofolate reductase (DHFR); conditions: in words, background; cited from earlier work

## COc1cc(Cc2cnc(N)nc2N)cc(OC)c1OC [trimethoprim]
[1]
  adverse reactions: high percentage of adverse reactions in AIDS patients

## COc1cc(NCc2ccc3nc(N)nc(N)c3c2C)cc(OC)c1OC [trimetrexate]
[2]
  potency: high potency
  selectivity: poor selectivity
